Results: the supplement of paper PMC8671470

Columns and labels:
Conditions in all cases: 72 h
Mono-Mac-6 [1] = assay: cell viability (% survival relative to DMSO control, bortezomib = 0%); higher = less cytotoxic
In short: (§1)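 Fifteen myeloid leukaemia cell lines were exposed to compounds at 1, 10, 100, 1000 or 10000 nM in 384-well plates for 72 h at 37 °C and 5% CO2. Viability was read by CellTiter-Glo luminescence and normalised, with vehicle as 100% and a 10 µM positive control as 0%. Values are percent survival averaged over duplicates.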

BV-173 [2] = assay: as above
In short: as §1

HEL [3] = assay: as above
In short: as §1

THP-1 [4] = assay: as above
In short: as §1

SHI-1 [5] = assay: as above
In short: as §1

K-562 [6] = assay: as above
In short: as §1

KU-812 [7] = assay: as above
In short: as §1

HL-60 [8] = assay: as above
In short: as §1

NOMO-1 [9] = assay: as above
In short: as §1

ML-2 [10] = assay: as above
In short: as §1

MV4-11 [11] = assay: as above
In short: as §1

LAMA-84 [12] = assay: as above
In short: as §1

HL-60 [13] = assay: cell viability (% survival relative to DMSO control); higher = less cytotoxic
In short: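 HL-60 cells grown in RPMI 1640 with 10% FBS were rescreened against the full library in 384-well plates, in duplicate, at five tenfold concentrations from 1 to 10,000 nM, alongside DMSO or 100 nM of one of three metabolic inhibitors for 72 h at 37 °C, 5% CO2. Reference wells contained DMSO or 10 μM proteasome inhibitor. Viability was read with CellTiter-Glo and normalised to these reference wells, and where reported, area under the curve was taken from four-parameter log-logistic fits in drc and PharmacoGx.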

Mono-Mac-6 [14] = tested on: Mono-Mac-6
In short: (§2)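 Dose–response data were fitted with a four-parameter log-logistic model. They came from fifteen myeloid leukaemia lines treated in duplicate with five tenfold doses from 1 to 10,000 nM for 72 h at 37 °C with 5% CO2, with ATP viability normalised to vehicle and to a positive control at 10 µM. The IC50 was derived from these fits.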

BV-173 [15] = tested on: BV-173
In short: as §2

HEL [16] = tested on: HEL
In short: as §2

THP-1 [17] = tested on: THP-1
In short: as §2

SHI-1 [18] = tested on: SHI-1
In short: as §2

KCL-22 = tested on: KCL-22
In short: as §2

K-562 [19] = tested on: K-562
In short: as §2

KU-812 [20] = tested on: KU-812
In short: as §2

MOLM-13 = tested on: MOLM-13
In short: as §2

HL-60 [21] = tested on: HL-60
In short: as §2

KG-1 = tested on: KG-1
In short: as §2

NOMO-1 [22] = tested on: NOMO-1
In short: as §2

ML-2 [23] = tested on: ML-2
In short: as §2

MV4-11 [24] = tested on: MV4-11
In short: as §2

LAMA-84 [25] = tested on: LAMA-84
In short: as §2

CCCCCCCCCCCC(=O)c1c(O)c(C(=O)CCCCCCCCCCC)c(O)c(C2CC(c3ccc(O)cc3)Oc3cc(O)ccc32)c1O (stereo not given)
cell viability [%]
Conditions	1 nM	10 nM	100 nM	1000 nM	10000 nM
BV-173 [2]	119	114	102	101	89
HEL [3]	108	97.8	115	110	87
HL-60 [8]	118	119	70.4	105	114
K-562 [6]	97.9	91.5	99.4	117	108
KU-812 [7]	102	104	110	102	105
LAMA-84 [12]	105	99.9	114	103	99.1
ML-2 [10]	105	114	118	116	104
MV4-11 [11]	95.9	115	101	98.5	90.1
Mono-Mac-6 [1]	86.1	112	106	103	91.6
NOMO-1 [9]	108	118	110	111	96.7
SHI-1 [5]	95.1	111	102	112	104
THP-1 [4]	101	114	107	104	102

cell viability [%], HL-60 [13]
Conditions	0.001 µM	0.01 µM	0.1 µM	1 µM	10 µM
co-treatment: AZD3965 100 nM	95.8	104	97.5	107	101
co-treatment: DMSO vehicle	99.8	98.29	99.11	102.2	104.7
co-treatment: GSK2194069 100 nM	101	96.5	101	104	100
co-treatment: pictilisib 100 nM	107	107	99.9	101	95.4

Conditions	IC50 (cell viability) [µM]
BV-173 [15]	> 10
HEL [16]	> 10
HL-60 [21]	> 10
K-562 [19]	> 10
KCL-22	> 10
KG-1	> 10
KU-812 [20]	> 10
LAMA-84 [25]	> 10
ML-2 [23]	> 10
MOLM-13	> 10
MV4-11 [24]	> 10
Mono-Mac-6 [14]	> 10
NOMO-1 [22]	> 10
SHI-1 [18]	> 10
THP-1 [17]	> 10

CCOP(=O)(OCC)C(=Cc1cc(C(C)(C)C)c(O)c(C(C)(C)C)c1)P(=O)(OCC)OCC
cell viability [%]
Conditions	1 nM	10 nM	100 nM	1000 nM	10000 nM
BV-173 [2]	92.7	96.8	121	89.9	64.5
HEL [3]	92.1	95.8	109	89.8	108
HL-60 [8]	93.9	94.9	159	65.9	83.4
K-562 [6]	91.1	90.4	118	101	90.1
KU-812 [7]	98.4	92.3	123	85.5	73.6
LAMA-84 [12]	94.8	99.1	114	97.6	94.1
ML-2 [10]	95.1	98.1	134	78.9	80
MV4-11 [11]	94.2	90.7	117	104	82
Mono-Mac-6 [1]	93.3	99.4	129	75.2	57.6
NOMO-1 [9]	97	99.1	118	91.4	93.4
SHI-1 [5]	100	89.7	123	94.9	98.5
THP-1 [4]	96.7	98.1	115	83.9	85.1

cell viability [%], HL-60 [13]
Conditions	0.001 µM	0.01 µM	0.1 µM	1 µM	10 µM
co-treatment: AZD3965 100 nM	95.9	101	109	101	98
co-treatment: DMSO vehicle	100	105	99.5	104	105
co-treatment: GSK2194069 100 nM	101	104	102	102	94.5
co-treatment: pictilisib 100 nM	96.4	99.31	107	94.9	103

Conditions	IC50 (cell viability) [µM]
BV-173 [15]	> 10
HEL [16]	> 10
HL-60 [21]	> 10
K-562 [19]	> 10
KCL-22	> 10
KG-1	> 10
KU-812 [20]	> 10
LAMA-84 [25]	> 10
ML-2 [23]	> 10
MOLM-13	> 10
MV4-11 [24]	> 10
Mono-Mac-6 [14]	6.9
NOMO-1 [22]	> 10
SHI-1 [18]	> 10
THP-1 [17]	> 10

COc1ccc(-c2ccccc2)cc1NS(=O)(=O)c1cc(Cl)cc(Cl)c1O
cell viability [%]
Conditions	1 nM	10 nM	100 nM	1000 nM	10000 nM
BV-173 [2]	98.9	90	119	87.1	94.6
HEL [3]	106	87.4	115	74	95.3
HL-60 [8]	88.3	77.6	100	25.6	95.9
K-562 [6]	86.8	105	126	87.9	86.9
KU-812 [7]	98.2	84.4	105	95.6	104
LAMA-84 [12]	102	95.1	113	103	99
ML-2 [10]	99.8	102	102	84.5	97.7
MV4-11 [11]	98.8	96.1	117	86.3	98.3
Mono-Mac-6 [1]	102	86.8	97.8	90.2	90.7
NOMO-1 [9]	102	96	107	92.7	99
SHI-1 [5]	95.9	101	105	82.2	113
THP-1 [4]	101	98.4	101	85.5	99.9

cell viability [%], HL-60 [13]
Conditions	0.001 µM	0.01 µM	0.1 µM	1 µM	10 µM
co-treatment: AZD3965 100 nM	99.4	102	99	96	99.06
co-treatment: DMSO vehicle	96.3	104.5	109	103	99
co-treatment: GSK2194069 100 nM	93.5	99	109	92.7	98.5
co-treatment: pictilisib 100 nM	103	104	114	100	93.2

Conditions	IC50 (cell viability) [µM]
BV-173 [15]	> 10
HEL [16]	> 10
HL-60 [21]	> 10
K-562 [19]	> 10
KCL-22	> 10
KG-1	> 10
KU-812 [20]	> 10
LAMA-84 [25]	> 10
ML-2 [23]	> 10
MOLM-13	> 10
MV4-11 [24]	> 10
Mono-Mac-6 [14]	> 10
NOMO-1 [22]	> 10
SHI-1 [18]	> 10
THP-1 [17]	> 10

C[C@H](NC(=O)c1sccc1OCc1ccc(Cl)cc1)c1ccccc1
cell viability [%]
Conditions	1 nM	10 nM	100 nM	1000 nM	10000 nM
BV-173 [2]	93.5	99.7	89.2	90.1	50.4
HEL [3]	98.3	101	97.6	97.5	91.4
HL-60 [8]	90.6	84.1	106	35.7	56
K-562 [6]	96.4	93.3	87.6	97.2	62
KU-812 [7]	84.6	96.1	94.8	95.8	59.8
LAMA-84 [12]	94.2	100	94	98.9	65.4
ML-2 [10]	104	108	98.8	106	72.4
MV4-11 [11]	89.3	102	83	96.1	59.9
Mono-Mac-6 [1]	88.8	102	102	98.3	88.8
NOMO-1 [9]	96.6	108	99.3	102	101
SHI-1 [5]	82.5	98.7	97.9	95.4	75.7
THP-1 [4]	101	103	99	103	92.1

cell viability [%], HL-60 [13]
Conditions	0.001 µM	0.01 µM	0.1 µM	1 µM	10 µM
co-treatment: AZD3965 100 nM	70.8	87.5	99.14	103	92.2
co-treatment: DMSO vehicle	99.5	98.9	96.69	104	97.6
co-treatment: GSK2194069 100 nM	83.9	89.91	98.7	74.5	92.5
co-treatment: pictilisib 100 nM	90.8	95.7	94.9	95.2	108

Conditions	IC50 (cell viability) [µM]
BV-173 [15]	> 10
HEL [16]	> 10
HL-60 [21]	0.751
K-562 [19]	> 10
KCL-22	> 10
KG-1	> 10
KU-812 [20]	> 10
LAMA-84 [25]	> 10
ML-2 [23]	> 10
MOLM-13	> 10
MV4-11 [24]	> 10
Mono-Mac-6 [14]	> 10
NOMO-1 [22]	> 10
SHI-1 [18]	> 10
THP-1 [17]	> 10

O=C(O)c1cc(Cl)cc(Cl)c1O [3,5-Dichlorosalicylic Acid]
cell viability [%]
Conditions	1 nM	10 nM	100 nM	1000 nM	10000 nM
BV-173 [2]	107	86.1	119	106	106
HEL [3]	102	111	98.6	111	104
HL-60 [8]	106	136	84.5	117	93.5
K-562 [6]	107	125	104	111	90.9
KU-812 [7]	90.5	93.7	95.8	109	87.3
LAMA-84 [12]	105	87.4	97.5	103	92
ML-2 [10]	97.4	99.8	95.6	107	93.1
MV4-11 [11]	96	106	91.3	104	88.3
Mono-Mac-6 [1]	106	102	93.7	107	89.7
NOMO-1 [9]	93.9	94.9	88.1	105	98.7
SHI-1 [5]	110	105	98.4	111	90
THP-1 [4]	95.3	93.3	87.7	96.7	98.8

cell viability [%], HL-60 [13]
Conditions	0.001 µM	0.01 µM	0.1 µM	1 µM	10 µM
co-treatment: AZD3965 100 nM	107	98.5	99.4	101	101
co-treatment: DMSO vehicle	104	105	101	106	101
co-treatment: GSK2194069 100 nM	97.6	97	95.56	97.5	102
co-treatment: pictilisib 100 nM	80.1	93.1	100	107	103

Conditions	IC50 (cell viability) [µM]
BV-173 [15]	> 10
HEL [16]	> 10
HL-60 [21]	> 10
K-562 [19]	> 10
KCL-22	> 10
KG-1	> 10
KU-812 [20]	> 10
LAMA-84 [25]	> 10
ML-2 [23]	> 10
MOLM-13	> 10
MV4-11 [24]	> 10
Mono-Mac-6 [14]	> 10
NOMO-1 [22]	> 10
SHI-1 [18]	> 10
THP-1 [17]	> 10
